# Assay results published in patent EP3294317B1, “ENHANCED ANTIBIOTIC COMPOSITION” (Universitat Autònoma de Barcelona, priority 2015, dated 2016).
# Key:
# [1] = system: Stenotrophomonas maltophilia ATCC 13637; test: Colistin broth microdilution MIC with potentiator compounds (Example 1); type: cell-based; conditions: S. maltophilia ATCC 13637; MIC in the presence of 1.0% DMSO / MIC in the presence of 0.1 mM potentiator compound and 1.0% DMSO; positive = increased, negative = decreased susceptibility, 1 = no effect
# [2] = system: Acinetobacter baumannii ATCC 15308; test: as above; type: cell-based; conditions: A. baumannii ATCC 15308; MIC in the presence of 1.0% DMSO / MIC in the presence of 0.1 mM potentiator compound and 1.0% DMSO; positive = increased, negative = decreased susceptibility, 1 = no effect
# [3] = system: Escherichia coli ATCC 9637; test: as above; type: cell-based; conditions: E. coli ATCC 9637; MIC in the presence of 1.0% DMSO / MIC in the presence of 0.1 mM potentiator compound and 1.0% DMSO; positive = increased, negative = decreased susceptibility, 1 = no effect
# [4] = system: Pseudomonas aeruginosa PAO1; test: as above; type: cell-based; conditions: P. aeruginosa PAO1; MIC in the presence of 1.0% DMSO / MIC in the presence of 0.1 mM potentiator compound and 1.0% DMSO; positive = increased, negative = decreased susceptibility, 1 = no effect
# [5] = Solubility of the stock solution in methanol; type: physicochemical; conditions: organic solvent or mixture; 100% Methanol; fairly soluble, required vigorous vortex
# Experimental: Selected compound of formula I was first dissolved in 100% of Methanol (HPLC Gradient Grade CHROMASOLV. Sigma, 34885-1L-R) to 10 mM. The compound was fairly soluble in methanol up to 10 mM and required vigorous vortex.
# [6] = system: S. maltophilia ATCC 13637; test: Broth microdilution MIC of other antibiotics with potentiator compounds (Example 2); type: cell-based, Stenotrophomonas maltophilia
# Experimental: Following the procedure of Example 1, ciprofloxacin, amikacin, levofloxacin, tigecycline, imipenem and the combination trimethoprim/sulfamethoxasole (1:19) were tested. All were purchased from Sigma-Aldrich Co.
# (§1) Minimal inhibitory concentration (MIC) of the antibiotic or the test combinations were determined by the broth microdilution method.
# (§2) Antibiotic stock solutions were prepared according to CLSI recommendations and sterilizing by passage through 0.20 µm filters.
# (§3) Antimicrobial susceptibility testing of these isolates was performed using the broth microdilution (BMD) method, according to CLSI guidelines.
# (§4) The fold increase in bacterial susceptibility to antibiotics when combined with the potentiator compound (expressed as MIC in the presence of 1.0% DMSO / MIC in the presence of 0.1 mM of each potentiator compound and 1.0% DMSO) are shown in Table 4: […]
# S. maltophilia 197 = test: Colistin broth microdilution MIC with potentiator compounds, resistant clinical isolates (Example 3); type: cell-based, Stenotrophomonas maltophilia
# Experimental: (§5) The potentiator effect of the compound of the invention and other compounds disclosed herein was tested using colistin sulfate as antibiotic and in combination with the enhancer compounds in front of resistant clinical isolates.
# (§6) Tests were performed to determine the potentiator effect of the compound of the invention and other compounds disclosed herein with multidrug-resistant S. maltophilia and A. baumannii clinical strains as shown in Table 5: TABLE 5
# (§7) For this experiment the potentiator compound was added to a colistin broth microdilution assay at a final concentration of 0.1mM. MICs were determined as described in the Example 1.
# as §4, with “Colistin minimal inhibitory concentration (MIC), expressed in µg/mL, and the” for “The”, “colistin” for “antibiotics”, “6:” for “4:”
# S. maltophilia 257 [7] = test: as above; type: cell-based, Stenotrophomonas maltophilia; conditions: MIC in the presence of 1.0% DMSO / MIC in the presence of 0.1 mM compound and 1.0% DMSO, positive = increased susceptibility, 1 = no effect
# Experimental: as §5, §6, §7
# as §4, with “Colistin minimal inhibitory concentration (MIC), expressed in µg/mL, and the” for “The”, “colistin” for “antibiotics”, “6:” for “4:”
# S. maltophilia D457 = test: as above; type: cell-based, Stenotrophomonas maltophilia; conditions: MIC in the presence of 1.0% DMSO / MIC in the presence of 0.1 mM compound and 1.0% DMSO, positive = increased susceptibility, 1 = no effect
# Experimental: as §5, §6, §7
# as §4, with “Colistin minimal inhibitory concentration (MIC), expressed in µg/mL, and the” for “The”, “colistin” for “antibiotics”, “6:” for “4:”
# S. maltophilia M30 = test: as above; type: cell-based, Stenotrophomonas maltophilia
# Experimental: as §5, §6, §7
# as §4, with “Colistin minimal inhibitory concentration (MIC), expressed in µg/mL, and the” for “The”, “colistin” for “antibiotics”, “6:” for “4:”
# S. maltophilia 53149 = test: as above; type: cell-based, Stenotrophomonas maltophilia; conditions: MIC in the presence of 1.0% DMSO / MIC in the presence of 0.1 mM compound and 1.0% DMSO, positive = increased susceptibility, 1 = no effect
# Experimental: as §5, §6, §7
# as §4, with “Colistin minimal inhibitory concentration (MIC), expressed in µg/mL, and the” for “The”, “colistin” for “antibiotics”, “6:” for “4:”
# A. baumannii 6963 [8] = test: as above; type: cell-based, Acinetobacter baumannii; conditions: MIC in the presence of 1.0% DMSO / MIC in the presence of 0.1 mM compound and 1.0% DMSO, positive = increased susceptibility, 1 = no effect
# Experimental: as §5, §6, §7
# as §4, with “Colistin minimal inhibitory concentration (MIC), expressed in µg/mL, and the” for “The”, “colistin” for “antibiotics”, “6:” for “4:”
# A. baumannii 6799 [9] = test: as above; type: cell-based, Acinetobacter baumannii; conditions: MIC in the presence of 1.0% DMSO / MIC in the presence of 0.1 mM compound and 1.0% DMSO, positive = increased susceptibility, 1 = no effect
# Experimental: as §5, §6, §7
# as §4, with “Colistin minimal inhibitory concentration (MIC), expressed in µg/mL, and the” for “The”, “colistin” for “antibiotics”, “6:” for “4:”
# S. maltophilia 257 [10] = test: Broth microdilution MIC of other antibiotics with potentiator compounds, clinical isolates (Example 4); type: cell-based, Stenotrophomonas maltophilia; conditions: MIC in 1.0% DMSO / MIC with 0.1 mM compound and 1.0% DMSO
# Experimental: (§8) Following the procedure of Example 3, ciprofloxacin, amikacin, levofloxacin, imipenem and the combination trimethoprim/sulfamethoxasole (1:19) were tested. All were purchased from Sigma-Aldrich Co.
# as §1, §2, §3
# (§9) The fold increase in bacterial susceptibility to antibiotics when combined with the potentiator compound (expressed as MIC in the presence of 1.0% DMSO / MIC in the presence of 0.1 mM of each potentiator compound and 1.0% DMSO) are shown in Table 7: […]
# A. baumannii 6963 [11] = test: as above; type: cell-based, Acinetobacter baumannii; conditions: MIC in 1.0% DMSO / MIC with 0.1 mM compound and 1.0% DMSO
# Experimental: as §8, §1, §2, §3, §9
# A. baumannii 6799 [12] = test: as above; type: cell-based, Acinetobacter baumannii
# Experimental: as §8, §1, §2, §3, §9
# [13] = MIC in 1.0% DMSO / MIC with 0.1 mM potentiator compound and 1.0% DMSO
# [14] = MIC in the presence of 1.0% DMSO / MIC in the presence of 0.1 mM compound and 1.0% DMSO, positive = increased susceptibility, 1 = no effect
# [15] = MIC in 1.0% DMSO / MIC with 0.1 mM compound and 1.0% DMSO
smiles,measurement,setting,value
"CN(C)CCNC(=O)c1cccc(CNC(=O)Nc2ccc3c(c2)Cc2ccccc2-3)c1 [I, N-[2-(dimethylamino)ethyl]-3-[(9H-fluoren-2-ylcarbamoylamino)methyl]benzamide]",Fold increase in bacterial susceptibility to colistin,[1],+64 fold
same,Fold increase in bacterial susceptibility to colistin,[2],+4 fold
same,Fold increase in bacterial susceptibility to colistin,[3],+2 fold
same,Fold increase in bacterial susceptibility to colistin,[4],+2 fold
same,solubility,[5],≤ 10 mM
same,Fold increase in bacterial susceptibility to Amikacin,[6]; [13],4 fold
same,Fold increase in bacterial susceptibility to Ciprofloxacin,[6]; [13],2 fold
same,Fold increase in bacterial susceptibility to Levofloxacin,[6]; [13],2 fold
same,Fold increase in bacterial susceptibility to TMP/SMX,"[6]; Trimethoprim:sulfamethoxazole 1:19, MIC in 1.0% DMSO / MIC with 0.1 mM potentiator compound and 1.0% DMSO",2 fold
same,Colistin susceptibility category according to the CLSI criteria in the presence of the compound,S. maltophilia 197; 0.1 mM compound,become sensitive to colistin
same,Fold increase in bacterial susceptibility to colistin,S. maltophilia 197; [14],+32 fold
same,Fold increase in bacterial susceptibility to colistin,S. maltophilia 257 [7],+4 fold
same,Fold increase in bacterial susceptibility to colistin,S. maltophilia D457,+2 fold
same,Colistin susceptibility category according to the CLSI criteria in the presence of the compound,S. maltophilia M30; 0.1 mM compound,become sensitive to colistin
same,Fold increase in bacterial susceptibility to colistin,S. maltophilia M30; [14],+8 fold
same,Fold increase in bacterial susceptibility to colistin,S. maltophilia 53149,+4 fold
same,Fold increase in bacterial susceptibility to colistin,A. baumannii 6963 [8],>4 fold
same,Fold increase in bacterial susceptibility to colistin,A. baumannii 6799 [9],+8 fold
same,Fold increase in bacterial susceptibility to Levofloxacin,S. maltophilia 257 [10],Levofloxacin (2) fold
same,Fold increase in bacterial susceptibility to Ciprofloxacin,A. baumannii 6963 [11],Ciprofloxacin (2) Levofloxacin (2) Imipenem (2) fold
same,Fold increase in bacterial susceptibility to Imipenem,A. baumannii 6963 [11],Ciprofloxacin (2) Levofloxacin (2) Imipenem (2) fold
same,Fold increase in bacterial susceptibility to Levofloxacin,A. baumannii 6963 [11],Ciprofloxacin (2) Levofloxacin (2) Imipenem (2) fold
same,Fold increase in bacterial susceptibility to Amikacin,A. baumannii 6799 [12]; [15],2 fold
same,Fold increase in bacterial susceptibility to Ciprofloxacin,A. baumannii 6799 [12]; [15],8 fold
same,Fold increase in bacterial susceptibility to Imipenem,A. baumannii 6799 [12]; [15],4 fold
same,Fold increase in bacterial susceptibility to Levofloxacin,A. baumannii 6799 [12]; [15],2 fold
same,Fold increase in bacterial susceptibility to TMP/SMX,"A. baumannii 6799 [12]; Trimethoprim:sulfamethoxazole 1:19, MIC in 1.0% DMSO / MIC with 0.1 mM compound and 1.0% DMSO",2 fold
